# Data from patent US9096534B2, “Pyridazinone compound and use thereof” (SUMITOMO CHEMICAL COMPANY, LIMITED, priority 2006, dated 2015).
# Experiments:
# [1] = tested on: Lolium multiflorum; test: Post-emergence treatment test in dry field; format: in vivo; details: 500 g/ha; foliar spray at first to second leaf stage; 20 days after treatment; 0 = no effect, 10 = complete death
# Method: A plastic cup with a diameter of 8 cm and a depth of 6.5 cm was filled with commercially available soil, onto which seeds of Lolium multiflorum were sowed, covered with soil about 0.5 cm high and then grown in a greenhouse. When the plants were grown in first to second leaf stage, a prescribed dosage of a dilute liquid formulation comprising Compound I-a-1 was sprayed to whole plants uniformly. The dilute liquid formulation was prepared by dissolving a prescribed amount of Compound I-a-1 in a dimethylformamide solution (2%) of Tween 20 (polyoxyethylene sorbitan fatty acid ester, from MP Biomedicals, Inc.) and then diluting with deionized water. The plants after treatment with the liquid formulation were grown in a greenhouse and 20 days after the treatment, the efficacy of the compound against Lolium multiflorum was visually evaluated by rating in eleven levels from 0 to 10 (assigned as 0 for no effect and 10 for complete death while values falling in between these values were rated from 1 to 9 levels accordingly).
# The other present compounds and Compound A described in J. Heterocycl. Chem., vol. 42, pp. 427-435 (2005) as a comparative example were similarly tested.
# [2] = tested on: Apera spica-venti; test: Pre-emergence treatment test in dry field; format: in vivo; details: 500 g/ha; sprayed to soil surface after sowing; three weeks after treatment; 0 = no effect, 10 = complete death
# Method: A plastic container (32 cm×22 cm×8 cm in height) was filled with soil sterilized by steam, onto which seeds of Apera spica-venti were sowed and covered with soil about 0.5 cm high. A prescribed dosage of a dilute liquid formulation comprising Compound I-a-1 was sprayed to the soil surface uniformly. The dilute liquid formulation was prepared by the method similar to that in Test example 1. The plants after treatment with the liquid formulation were grown in a greenhouse and three weeks after the treatment, the efficacy of the compound against Apera spica-venti was visually evaluated by rating in eleven levels from 0 to 10 similarly to Test example 1.
# The other present compounds and Compound A as a comparative example were similarly tested.
smiles,measurement,setting,value
Cc1ccccc1-c1c(O)cnn(C)c1=O [Compound A],"efficacy against Lolium multiflorum, visually evaluated by rating in eleven levels from 0 to 10",[1],1
same,"efficacy against Apera spica-venti, visually evaluated by rating in eleven levels from 0 to 10",[2],1
